Results from ChEMBL document CHEMBL4414634, “Alternatone A, an Unusual Perylenequinone-Related Compound from a Soft-Coral-Derived Strain of the Fungus Alternaria alternata” (J Nat Prod, 2019).
Calls of active or inactive are those of the source. The rule behind the calls is not given here.

Experiments:
Assay type in all cases: functional, cell-based
[1] = system: HCT-116; assay: Antiproliferative activity against human HCT116 cells assessed as reduction in cell viability by SRB assay
[2] = system: A549; assay: Antiproliferative activity against human A549 cells assessed as reduction in cell viability by SRB assay
[3] = system: HeLa; assay: Antiproliferative activity against human HeLa cells assessed as reduction in cell viability by MTT assay

Row | SMILES | Activity [1] | Activity [2] | Activity [3] | IC50 [1] [nM] | IC50 [2] [nM] | IC50 [3] [nM]
1 | O=C1C[C@H](O)[C@@H]2c3c(ccc(O)c31)-c1ccc(O)c3c1[C@@]2(O)CCC3=O | inactive | inactive | inactive | – | – | –
2 | O=C1C[C@@H](O)[C@@H]2c3ccc(O)c4c3[C@@H](c3ccc(O)c1c32)[C@H](O)CC4=O | inactive | inactive | inactive | – | – | –
3 | O=C1C[C@H](O)[C@@H]2c3c(ccc(O)c31)-c1ccc(O)c3c1[C@@]2(O)C=CC3=O | – | – | – | 2400 | 2600 | 3100
4 | O=C1C[C@@H]2[C@@H]3C(=O)c4c(O)cccc4[C@@H]([C@@H]3O)[C@@H]2c2cccc(O)c21 | inactive | inactive | inactive | – | – | –
